# Reference: PubChem BioAssay (NCI)
# Several values for one entry are separate records, joined by “and”; a condition that tells them apart may be missing. Identical values can stand only once.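 Cells were grown in 96-well plates and exposed to each compound for 48 hours at five concentrations; endpoints were interpolated linearly between bracketing concentrations, or set to the highest concentration if not reached. The concentration for 50% growth inhibition is given as GI50. TGI is the concentration that stops growth completely.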
# Tests used:
# Experiment in all cases: DTP human tumour cell line panel, 48 h
# BT-549 breast = tested on: BT-549 breast
# T-47D breast = tested on: T-47D breast
# HOP-18 NSCLC = tested on: HOP-18 NSCLC
# PC-3 prostate = tested on: PC-3 prostate
# XF 498 CNS = tested on: XF 498 CNS
# DMS 114 small cell lung = tested on: DMS 114 small cell lung
# MCF7 breast = tested on: MCF7 breast
# MDA-MB-435 = tested on: MDA-MB-435
# MDA-MB-231 breast = tested on: MDA-MB-231 breast
# M19-MEL melanoma = tested on: M19-MEL melanoma
Structure (SMILES),TGI (HOP-18 NSCLC),TGI (XF 498 CNS),TGI (DMS 114 small cell lung),TGI (M19-MEL melanoma),other results
Cc1[nH]c(=O)[nH]c(=O)c1N(CCF)CCCl,927 µM and 2060 µM and 1190 µM,679 µM and 554 µM,371 µM and 771 µM and 436 µM,–,TGI (BT-549 breast): 769 µM; TGI (T-47D breast): 1340 µM; GI50 (HOP-18 NSCLC): 401 µM and 719 µM and 415 µM; TGI (PC-3 prostate): 954 µM; GI50 (XF 498 CNS): 334 µM and 198 µM; GI50 (DMS 114 small cell lung): 148 µM; GI50 (MCF7 breast): 140 µM; TGI (MCF7 breast): 502 µM and > 250 µM and 851 µM; TGI (MDA-MB-435): 876 µM; TGI (MDA-MB-231 breast): 888 µM
CN(C)c1ccc(-c2cc(=O)c3ccccc3[nH]2)cc1,–,–,> 100 µM,> 100 µM,–
CCN(CC)CCCN(c1cc(OC)cc2nccnc12)S(=O)(=O)c1ccc(C)cc1,> 100 µM,> 100 µM,> 100 µM,> 100 µM,–
CN(C)CCCCN1CCc2c(n(C)c3ccccc23)C1=O,> 100 µM,43.6 µM,> 100 µM,69.6 µM,TGI (BT-549 breast): > 61.5 µM and 95.3 µM; TGI (T-47D breast): > 51.5 µM and 59.9 µM; GI50 (PC-3 prostate): 33 µM and > 68.7 µM; TGI (PC-3 prostate): > 100 µM; TGI (MCF7 breast): > 59.9 µM and 64.7 µM; TGI (MDA-MB-435): 33.9 µM and 35 µM; TGI (MDA-MB-231 breast): > 63.2 µM and 61.9 µM
COc1cccc(N2C(=O)c3c(c4[nH]c5ccccc5c4c4ccc(C(C)(C)C)cc34)C2=O)c1,> 100 µM,> 100 µM,> 100 µM,> 100 µM,–
COc1nc2c(OC)cccc2c(OC)c1C=O,> 100 µM,> 100 µM,> 100 µM,> 100 µM,–
CC(C)(C)NNC(=O)/C(=C/c1ccc(Oc2ccc(Cl)c(Cl)c2)cc1)NC(=O)c1ccccc1,> 100 µM,> 100 µM,35.9 µM,> 100 µM,–
O=C(CCN1CCN(c2cccc(Cl)c2)CC1)N1CCc2c([nH]c3ccccc23)C1c1cccnc1 (stereo not drawn),32.5 µM,9.57 µM,–,26.4 µM,–
O=P(c1ccccc1)(c1ccccc1)C1CC=C(c2ccccc2)C2(CCCC2)C1 (stereo not drawn),76.9 µM,> 100 µM,> 100 µM,> 100 µM,–
O=C1NC(=O)C(C(=O)C(=O)Nc2ccc(Br)cc2)C(=O)N1,> 100 µM,> 100 µM,> 100 µM,> 100 µM,–
Oc1cccc2c1NC1=C(CCC/C1=C\c1ccccc1)C2,–,> 100 µM,> 100 µM,> 100 µM,–
COc1ccc2[nH]cc(CCNC(C)=O)c2c1,> 100 µM,> 100 µM,> 100 µM,> 100 µM,–
O=S(=O)([O-])[O-].[OH3+].[OH3+].[OH3+].[Ru+2].c1ccccc1,> 100 µM,> 100 µM,> 100 µM,> 100 µM,GI50 (HOP-18 NSCLC): > 100 µM; GI50 (M19-MEL melanoma): > 100 µM; GI50 (XF 498 CNS): > 100 µM; GI50 (DMS 114 small cell lung): > 100 µM
Cc1cc2c(cc1C)NC(=O)C(NC(=O)/C=C/c1ccccc1)C=N2 (stereo not drawn),> 100 µM,99.6 µM,31.1 µM,> 100 µM,–
O=C1C=CC(=O)c2c1ccc1c3ccccc3n(-c3ccccn3)c21,29.1 µM,29.3 µM,40.2 µM,41.6 µM,–
CCOC(=N)CC(=O)Nc1ccc(Cl)cc1,–,> 100 µM,–,> 100 µM,–
COc1ccc(OCC(=O)O)c2c1CCC(C(C)C)C2=O (stereo not drawn),> 100 µM,–,> 100 µM,> 100 µM,–
COC(=O)c1c[nH]cc1CCc1c[nH]cc1C(=O)OC,–,> 100 µM,–,> 100 µM,–
CCC/C(=N\NC(=S)N1CCN(c2ccccn2)CC1)c1ccccn1,0.68 µM and 1.15 µM,0.302 µM,0.111 µM,1.32 µM and 1.74 µM,TGI (BT-549 breast): 1.92 µM; TGI (T-47D breast): 0.389 µM; GI50 (HOP-18 NSCLC): 0.0316 µM; TGI (PC-3 prostate): 1.26 µM; GI50 (M19-MEL melanoma): 0.0534 µM; TGI (MCF7 breast): 1.41 µM; TGI (MDA-MB-435): 1.96 µM; TGI (MDA-MB-231 breast): 1.91 µM
CC(=O)N(C)OC(=O)CC(=O)c1ccccc1,–,> 100 µM,> 100 µM,> 100 µM,–

Structure (SMILES),TGI (HOP-18 NSCLC),TGI (XF 498 CNS),TGI (DMS 114 small cell lung),TGI (M19-MEL melanoma),other results
CCN1C(=O)C/C(=C\C(C)=O)Nc2ccccc21,–,> 100 µM,> 100 µM,> 100 µM,GI50 (BT-549 breast): > 100 µM; TGI (BT-549 breast): > 100 µM; GI50 (T-47D breast): > 100 µM; TGI (T-47D breast): > 100 µM; GI50 (PC-3 prostate): > 100 µM; TGI (PC-3 prostate): > 100 µM; GI50 (MCF7 breast): > 100 µM; TGI (MCF7 breast): > 100 µM; GI50 (MDA-MB-435): > 100 µM; TGI (MDA-MB-435): > 100 µM; GI50 (MDA-MB-231 breast): > 100 µM; TGI (MDA-MB-231 breast): > 100 µM
CC(C)C(C(=O)O)N(CC1(O)OCC(O)C(O)C1O)N=O (stereo not drawn),–,> 100 µM,> 100 µM,> 100 µM,–
CCNc1nnc(CSc2nc(-c3ccccc3)c(-c3ccccc3)[nH]2)s1,–,–,63.1 µM,32.1 µM,–
C/C(=N\NC(=S)N1CCCCCC1)c1nccnc1C,76.8 µM,9.89 µM,0.0275 µM,15.6 µM,–
C/C(=N\N=C(N)N)C(CN(CC(C)C)CC(C)C)C(=O)Nc1ccc(C)cc1C (stereo not drawn),> 100 µM,> 100 µM,> 100 µM,> 100 µM,–
C=CC1(C)CCC(C(C)C(=O)C(C=C(C)C)OC(C)=O)C12C(=O)Oc1ccccc1C2=O (stereo not drawn),> 100 µM,> 100 µM,> 100 µM,> 100 µM,–
O=C(O)c1ccc(S(=O)(=O)c2ccccc2)c([N+](=O)[O-])c1,> 100 µM,–,> 100 µM,> 100 µM,–
CCCCCCCCCCCCCS(=O)(=O)O,> 100 µM,> 100 µM,> 100 µM,> 100 µM,–
COC(=O)C1(C)C=C(Nc2ccccc2)C(=O)N1c1ccccc1 (stereo not drawn),> 100 µM,> 100 µM,> 100 µM,> 100 µM,–
CCCc1c2c([nH]c(=O)c1C)C(=O)c1[nH]c(=O)c(C)c(CCC)c1C2=O,> 100 µM,–,16.4 µM,9.52 µM,–
O=C(Nc1ccc(Cl)c(C(F)(F)F)c1)C(=O)C(C(=O)/C=C/c1ccccc1)C1OC(=O)c2ccccc21 (stereo not drawn),> 100 µM,> 100 µM,> 100 µM,> 100 µM,–
CC(=O)N1CCC2(C=Nc3ccccc32)CC1,> 100 µM,> 100 µM,> 100 µM,> 100 µM,–
O=C(O)c1ccc(NC(=O)C2C(=O)C(=O)N(c3ccc(C(=O)O)cc3)C2=O)cc1 (stereo not drawn),–,> 100 µM,–,> 100 µM,–
CC[C@@H]1C[C@@H]2CN3CCc4c([nH]c5ccc(OC)cc45)C(COC(=O)c4ccc(OC)c(OC)c4)(C2)C13,> 100 µM,46.1 µM,71.8 µM,> 100 µM,–
CN/N=C(/Cc1occc(=O)c1O)C(=O)Nc1ccc(C)c(C)c1,–,–,> 100 µM,> 100 µM,–
CSC(=S)c1ccc(C(=S)SC)cc1,> 100 µM,> 100 µM,> 100 µM,> 100 µM,–
Cc1ccc(S(=O)(=O)N/N=C(\CCN2CCCC2)CC(c2ccccc2)c2c(O)c3ccccc3oc2=O)cc1 (stereo not drawn),> 100 µM,> 100 µM,–,> 100 µM,–
Cc1ccc(NC(=O)c2[nH]c(=S)nc(N)c2-c2ccccc2C)cc1C,> 100 µM,> 100 µM,> 100 µM,> 100 µM,–
CN(C)CCNC(=O)c1ccc(Nc2nc3ccccc3c3occc23)cc1,–,–,–,–,GI50 (BT-549 breast): 5.69 µM; TGI (BT-549 breast): 23.9 µM; GI50 (T-47D breast): 16.4 µM; TGI (T-47D breast): 39.8 µM; GI50 (PC-3 prostate): 3 µM; TGI (PC-3 prostate): 14.3 µM; GI50 (MCF7 breast): 49.3 µM; TGI (MCF7 breast): > 100 µM; GI50 (MDA-MB-435): 1.95 µM; TGI (MDA-MB-435): 3.94 µM; GI50 (MDA-MB-231 breast): 1.54 µM; TGI (MDA-MB-231 breast): 4.14 µM
